What all share (test): inhibition of tumour cell growth, NCI panel, 48 h
Experiment [1] relates to SF-268.
Experiment [2] deals with OVCAR-3.
Experiment [3] deals with NCI-H460.
The subject of experiment [4] is A498.
Experiment [5] relates to OVCAR-5.
Experiment [6] relates to A549.
For experiment [7], the system named is SNB-19.
For experiment [8], the system named is KM12.
Experiment [9] relates to SK-MEL-5.
Experiment [10] relates to OVCAR-8.
In experiment [11] the test system is 786-0.
Experiment [12] deals with HCT-15.
In experiment [13] the test system is HL-60.
The test system of experiment [14] is BT-549.
Experiment [15] has as its system OVCAR-4.
Experiment [16] relates to NCI-H226.
Experiment [17] deals with UO-31.
The test system of experiment [18] is HOP-92.
The subject of experiment [19] is COLO 205.
Experiment [20] has as its system SF-539.

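Cultured in 96-well plates, cells were exposed to test compound for 48 hours across five concentrations. At the GI50, growth is halved.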 Activity calls are given as the source filed them. Cut-off read from the data, not from the text of the source: active = GI50 up to about 1.1 µM and inactive = higher. Bounds are passed on as bounds.

Consider `CCN(CC)c1ccc2c(c1)OC(=O)C(c1nnc(-c3ccc([N+](=O)[O-])cc3)o1)C2` (configuration not stated), for which the GI50 in experiment [1] was 90.4 µM (inactive); in experiment [2], > 100 µM (inactive); in [3], > 100 µM (inactive); in [4], > 100 µM (inactive); in [5], > 100 µM (inactive); in experiment [6], > 100 µM (inactive). The GI50 is > 100 µM (inactive) in [7]; > 100 µM (inactive) in experiment [8]; > 100 µM (inactive) in [9]; > 100 µM (inactive) in experiment [10]; > 100 µM (inactive) in experiment [11]; > 100 µM in [12]. For the same compound, the GI50 in [13] was 84.5 µM (inactive); in [14] it was > 100 µM (inactive); in [15], > 100 µM (inactive); in experiment [16] it was > 100 µM (inactive); in experiment [17], > 100 µM (inactive); in experiment [18] it was > 100 µM (inactive). For the same compound, the GI50 in experiment [19] is > 100 µM (inactive).

Regarding `CS(=O)(=O)c1ccc(/C=N/NC(N)=S)cc1`, the GI50 in experiment [1], in experiment [2], in experiment [3], in experiment [4], in experiment [5] and in [6] was > 100 µM (inactive) in each case. Also, the GI50 in [7] is > 100 µM (inactive); in [8], > 100 µM (inactive); in experiment [9], > 100 µM (inactive); in [10], > 100 µM (inactive); in experiment [11] it was > 100 µM (inactive); in [12], > 100 µM. Further, the GI50 in experiment [13], in experiment [14], in experiment [15], in experiment [16], in experiment [17] and in [18] was > 100 µM (inactive) throughout. Besides, in experiment [19], the GI50 is > 100 µM (inactive).

As to `CC(=O)C(=NNc1ccc(-n2c(C)nc3ccccc3c2=O)cc1)C(C)=O`, the GI50 in [1], in [2], in experiment [3], in experiment [4], in experiment [5] and in experiment [6] was > 100 µM (inactive) in each case. The GI50 was > 100 µM (inactive) in experiment [7]; 55 µM (inactive) in [8]; 11.7 µM (inactive) in [9]; > 100 µM (inactive) in experiment [10]; > 100 µM (inactive) in experiment [11]; > 100 µM in experiment [12]. Also, the GI50 in experiment [13] is > 100 µM (inactive); in experiment [14] it was > 100 µM (inactive); in experiment [16], 80.2 µM (inactive); in experiment [17] it was > 100 µM (inactive); in experiment [18], > 100 µM (inactive); in experiment [19] it was > 100 µM (inactive). The GI50 in [20] is > 100 µM (inactive).

As for `O=C1OCC2OC(=O)c3cc(O)c(O)c(O)c3-c3c(O)c(O)c(O)c4c3C(=O)OC(C2OC(=O)c2cc(O)c(O)c(O)c2-c2c1cc(O)c(O)c2O)C1OC(=O)c2c-4c(O)c(O)c(O)c2[C@@H]1C(O)C(O)C(O)C(O)CO` (some centres not stated), the GI50 was 21.5 µM (inactive) in [1]; 28.2 µM (inactive) in experiment [2]; 17.6 µM (inactive) in experiment [3]; 26.4 µM (inactive) in experiment [4]; 16 µM (inactive) in experiment [5]; 16.4 µM (inactive) in [6]. Moreover, the GI50 in experiment [7] was 46 µM (inactive); in [8] it was 22 µM (inactive); in experiment [9], 14.1 µM (inactive); in experiment [10] it was 23.3 µM (inactive); in experiment [11], 17.4 µM (inactive); in [12], 16.1 µM. Besides, the GI50 is 17 µM (inactive) in experiment [13]; 22.8 µM (inactive) in [14]; 16.6 µM (inactive) in [15]; 17.6 µM (inactive) in [16]; 17.8 µM (inactive) in experiment [17]; 18.2 µM (inactive) in experiment [18]. The GI50 in experiment [19] is 15.7 µM (inactive).

For the compound `Cn1c(=O)c2c(nc3n2CCCC(=O)N3CC(O)CCl)n(C)c1=O` (configuration not stated), the GI50 in experiment [1], in [2], in experiment [3], in experiment [4], in [5] and in [6] was > 100 µM (inactive) in each case. The GI50 is > 100 µM (inactive) in experiment [7]; > 100 µM (inactive) in experiment [8]; > 100 µM (inactive) in experiment [9]; > 100 µM (inactive) in experiment [10]; > 100 µM (inactive) in [11]; > 100 µM in [12]. Further, the GI50 in experiment [13], in [14], in experiment [15], in experiment [16], in [17] and in experiment [18] was > 100 µM (inactive) throughout. Besides, the GI50 in experiment [19] was > 100 µM (inactive).

Consider `Nc1nc(O)c2c(n1)NCN(c1ccc(S(N)(=O)=O)cc1)C2`, for which the GI50 in [1], in [2], in [3], in experiment [4], in experiment [5] and in experiment [6] was > 100 µM (inactive) throughout. For the same compound, the GI50 is > 100 µM (inactive) in experiment [7]; > 100 µM (inactive) in experiment [8]; > 100 µM (inactive) in [9]; > 100 µM (inactive) in experiment [10]; > 100 µM (inactive) in [11]; > 100 µM in experiment [12]. In addition, the GI50 in experiment [14], in [15], in experiment [16], in [17], in [18] and in [19] was > 100 µM (inactive) in each case.

For `Nc1nc(NCC2(CO)CC(CCc3ccccc3)C2)cc(=O)[nH]1` (configuration not stated), the GI50 in experiment [1], in experiment [2], in [3], in [4], in experiment [5] and in experiment [6] was > 100 µM (inactive) each time. Further, the GI50 was > 100 µM (inactive) in [7]; > 100 µM (inactive) in experiment [8]; > 100 µM (inactive) in experiment [9]; > 100 µM (inactive) in [10]; > 100 µM (inactive) in [11]; > 100 µM in experiment [12]. Moreover, the GI50 in experiment [13] is 82.8 µM (inactive); in [14], > 100 µM (inactive); in experiment [15] it was > 100 µM (inactive); in experiment [16] it was > 100 µM (inactive); in experiment [17], 18.2 µM (inactive); in [18] it was > 100 µM (inactive). In addition, the GI50 in [19] is > 100 µM (inactive).

On to `Cc1ccsc1/C=N/Nc1ccc2ccccc2n1`, for which the GI50 was 32.1 µM (inactive) in experiment [1]; 10.4 µM (inactive) in [2]; 7.76 µM (inactive) in [4]; > 100 µM (inactive) in experiment [5]; 7.43 µM (inactive) in [6]; 39.4 µM (inactive) in experiment [7]. The GI50 in experiment [8] was 32.1 µM (inactive); in [9] it was 3.4 µM (inactive); in experiment [10] it was 41.4 µM (inactive); in experiment [11], 30.8 µM (inactive); in experiment [12] it was 24.8 µM; in experiment [13], 11.8 µM (inactive). Also, the GI50 in experiment [14] is 34.4 µM (inactive); in experiment [15], 29.7 µM (inactive); in experiment [16], 35.9 µM (inactive); in experiment [17] it was 26.7 µM (inactive); in experiment [18], 17.9 µM (inactive); in [19], 27.7 µM (inactive).

As for `O=C(Nc1nn(C(=O)c2ccc(Cl)cc2)c(=O)s1)c1ccc(Cl)cc1`, the GI50 in [1], in experiment [2], in experiment [3], in [4], in [5] and in [6] was > 100 µM (inactive) each time. The GI50 in experiment [7] was > 100 µM (inactive); in experiment [8] it was > 100 µM (inactive); in experiment [9], > 100 µM (inactive); in [10], > 100 µM (inactive); in experiment [11], > 100 µM (inactive); in [12] it was > 100 µM. The GI50 in experiment [13], in experiment [14], in experiment [15], in experiment [16], in [17] and in experiment [18] was > 100 µM (inactive) each time. Besides, the GI50 in [19] is > 100 µM (inactive).

With `COC(=O)C(C)(C)NC(=O)C(Cc1ccccc1)Nc1ncnc2c1ncn2-c1ccc(OC)cc1` (configuration not stated), the GI50 in [1] was 31 µM (inactive); in [2], 38.8 µM (inactive); in experiment [3], 22.9 µM (inactive); in experiment [4] it was 20.1 µM (inactive); in experiment [5], 42.2 µM (inactive); in experiment [6] it was 22.5 µM (inactive). Further, the GI50 in experiment [7] is > 100 µM (inactive); in experiment [8], 25.6 µM (inactive); in experiment [9], 24.8 µM (inactive); in [10] it was 48.2 µM (inactive); in experiment [11], 28.8 µM (inactive); in experiment [12], 34.8 µM. The GI50 in experiment [14] is 40.9 µM (inactive); in experiment [15], 12.7 µM (inactive); in experiment [16], 32.1 µM (inactive); in experiment [17], 96.4 µM (inactive); in experiment [18], 22.8 µM (inactive); in experiment [19], 17.7 µM (inactive).

The values are drawn from ChEMBL document CHEMBL1201862, “PubChem BioAssay data set” (2004).
